# Experimental data reported in the pKa sets of Baltruschat and Czodrowski (2020).
# Details: acidic group
row,SMILES,pKa
1,Nc1c([O-])cccc1O,11.6
2,O=[Se](O)c1ccccc1-c1ccccc1,4.67
3,OCCNC(=S)S,2.82
4,O=C1COC=C([O-])C1=O,10.5
5,Cc1nc(N)c2cn[nH]c2n1,11.3
6,CCC(CC)C(=O)O[C@H]1O[C@@H](C(=O)O)[C@H](O)[C@@H](O)[C@@H]1O,3.37
7,Cc1c(C)c(O)c(C)c(C)c1[O-],12.8
8,Cc1c[n+]([C@@H]2C[C@@H](O)[C@H](CO)O2)c(O)nc1N,4.4
9,CCn1nnnc1NC(C)=O,8.38
10,COC(=O)CC(=O)c1cccnc1,8.98
11,COc1ccc(-c2c(O)c2=O)cc1,2.33
12,COC(=O)[C@H](NC(=O)Cc1ccccc1)[C@@H]1SC(C)(C)[C@H]2C(=O)NC(=S)N12,8
13,Cc1cccc(Cl)c1O,8.7
14,CC(C)C[C@H]([NH3+])C(=O)N[C@@H](Cc1c[nH]c[nH+]1)C(=O)O,2.76
15,N#CC(C#N)=C(C#N)C(C#N)C#N,1.9
16,Oc1ccc2c(cnc3ccccc32)c1,8.68
17,O=C(O)c1cccc([N+](=O)[O-])c1O,2.16
18,O=C([O-])/C=N/O,10.2
19,O=Nc1ccc(O)cc1,6.2
20,C[C@@]12CC(=O)N[C@]1(CCC(=O)[O-])C(=O)NC2=O,8.1
21,CBr,15.4
22,CCC(=O)c1nc(C(=O)O)cs1,3.7
23,O=C(O)Cc1c[nH]c2ccccc12,4.39
24,CC1(C)C(=O)CC(=O)CC1=O,4.2
25,O=C(O)CP,4.07
26,Cc1cccc(C(=O)O)c1I,2.92
27,OC(O)=C1SCc2ccccc21,5.32

row,SMILES,pKa
1,C[C@]12C[C@H](C(=O)O)OC(=O)[C@H]1CC[C@@]1(C)[C@@H]2[C@H]2CCC1(O)C(=O)O2,3.5
2,Cc1cc(C(=O)O)ccc1[N+](=O)[O-],3.65
3,Cc1cccc(S(=O)(=O)O)c1,-6.56
4,O=C1NC(=O)C(Cc2ccccc2)N1 (stereo unspecified),9.03
5,C[C@@H]1C[C@@H]([C@H](O)CC2CC(=O)NC(=O)C2)C(=O)[C@@H](C)C1,11.2
6,Nc1ccc(S(=O)(=O)Nc2ncc[nH]2)cc1,9.72
7,NC(=O)CNCCCNCC(N)=O,7.27
8,O=[N+]([O-])CCc1ccccc1,8.55
9,CCOC(=O)/C(C)=N/O,9.64
10,O=[N+]([O-])c1cccc(NC=S)c1,10.3
11,Cc1cccc(OCC(=O)O)c1,3.18
12,O=C1COC(=O)C1,3.76
13,O=C1NC(=O)C2CCC12 (stereo unspecified),9.63
14,Cc1ccc(SC2CC(=O)N2)cc1 (stereo unspecified),13.4
15,CCC(C)NC(C#N)=C(C#N)C#N (stereo unspecified),6.35
16,C=C(C)/C=C(\O)C=C(C)C,10.8
17,C[n+]1cccc(C(=O)O)c1,2.29
18,CC(=O)C(=NO)C(C)=O,7.44
19,CC(I)[N+](=O)[O-] (stereo unspecified),7.24
20,O=C/C(O)=C/O,5.03
21,Cc1ccc(O)cc1Cc1cc([N+](=O)[O-])ccc1O,7.03
22,C[NH+](C)c1ccc(/C=C/c2cc[n+](O)cc2)cc1,1.05
23,O=[N+]([O-])c1cccc(O)c1O,6.64
24,Cc1cc(O)nn1-c1ccccc1C(=O)N1CCCCC1,12.4
25,COc1ccccc1O,9.7
26,Cc1ccc(C(O)C(C(=O)O)c2ccc(C3CCCCC3)cc2)cc1 (stereo unspecified),4.18
27,Oc1cncc2ccccc12,8.68

row,SMILES,pKa
1,Nc1ccc(B(O)O)c([N+](=O)[O-])c1,9.64
2,[O-]B(O)c1cccc(O)c1,10.8
3,Cc1n[nH]c2c1c(=O)n(C)c(=O)n2C,9.83
4,CCOc1cccc(C)c1C(=O)O,3.51
5,CCOC(=O)c1ccc(O)c([N+](=O)[O-])c1,5.44
6,CN1C(=O)C2(CCCCC2)NC1=S,11.2
7,CC(=O)C(=O)CC(=O)C(C)=O,4.68
8,[NH3+]C(CC(=O)[O-])C(=O)NC(CC(=O)O)C(=O)O (stereo unspecified),3.4
9,COc1cccc(S)c1,6.39
10,Cc1ccc(OCC(=O)N[C@H]2C(=O)N3[C@H]2SC(C)(C)[C@H]3C(=O)O)cc1,2.8
11,CC(C)=C(C#N)C(=O)O,3.04
12,C[n+]1c2ccccc2nc2ccc(O)cc21,3
13,Cc1cc(C)cc(O)c1,10.1
14,CC(C)Oc1cccc(C(=O)O)c1,4.15
15,O=Cc1cccc(B(O)O)c1,7.8
16,O=C(O)Cc1ccccc1,4.27
17,CCOC(=O)C[N+](=O)[O-],5.82
18,Cc1ccc(C(=O)O)cc1C,4.41
19,C=C(C)/C=C(/C(=O)O)c1ccc([N+](=O)[O-])cc1,4.4
20,COc1ccc(/C=C\C(=O)O)cc1,4.03
21,Oc1ccccc1F,8.81
22,Nc1nc2nc[nH]c2c(O)[nH+]1,3.25
23,CN(C)C(=O)n1nc(C(C)(C)C)nc1SCC(=O)O,3.49
24,CC([SeH])C[NH3+] (stereo unspecified),5.19
25,Cc1cccc2oc(=O)cc(O)c12,4.2
26,O=C(O)c1cc(Cl)co1,2.69

# Same assay, conditions: basic group
row,SMILES,pKa
1,Cc1nc2ccccc2nc1[O-],9.88
2,OCCN1CC[NH2+]CC1,5.47
3,CCN(CC)CCCCNc1cc[nH+]c2ccccc12,8.94
4,CC/C=C/CC1=NC(C(=O)[O-])[C@@H]2SC(C)(C)C(C(=O)[O-])N12 (stereo partly specified),7.8
5,CCN(CC)C(C)C=C(c1cccs1)c1cccs1 (stereo unspecified),8.9
6,CCn1nnc(CC(=O)O)n1,3.45
7,NC(=O)C(c1ccccc1)c1ccccn1 (stereo unspecified),3.8
8,CCN1CCC=C1C,11.9
9,Cc1nc(N)c2cn[nH]c2n1,5.41
10,c1ccc(Oc2cccnc2)cc1,4.24
11,COc1cnccc1N,9.03
12,Cc1ccc(C[NH3+])cc1N,4.26
13,CC[n+]1c([O-])ccnc1[S-],8.65
14,COc1cccc(C(=O)NC2CC3CCC(C2)N3Cc2ccccc2)c1OC (stereo unspecified),8.91
15,C(=C/c1ccncc1)/c1ccncc1,5.57
16,Nc1ccccc1Br,2.4
17,[NH3+]CCC(=O)N[C@@H](Cc1c[nH]cn1)C(=O)[O-],6.89
18,Clc1ccc(/C=C/c2nnnn2-c2ccccc2)cc1,-2.54
19,COc1cc(NS(C)(=O)=O)ccc1-c1cn2cccnc2n1,4.17
20,[NH3+]CCc1ccccn1,3.93
21,Cn1c([O-])[nH+]c2cnc([O-])nc21,8.74
22,COc1c(CN)cc(C)cc1CN,8.85
23,Oc1ccc2c(cnc3ccccc32)c1,4.39

row,SMILES,pKa
1,[NH3+]CCCCc1cccnc1,5.52
2,c1ccc2c3c([nH]c2c1)CNCC3,8.4
3,Cc1cc([O-])nc2c1CCO2,8.44
4,Cc1ccc(-c2ncc(-c3ccccc3)o2)cc1,1.04
5,CCCCC(CC)CNc1ncnc2[nH]ncc12 (stereo unspecified),4.6
6,NCCN1CCOCC1,9.45
7,Nc1ccc(Br)cc1Br,2.3
8,CNCc1ccc(C)cc1,9.93
9,C[C@H]([NH3+])C(=O)N[C@@H](Cc1c[nH]cn1)C(=O)[O-],6.76
10,CN(C)S(=O)(=O)c1ccc(N)cc1,1.53
11,Nc1ccc(Cl)cc1N,4.3
12,CC1(C)S[C@H]2C(C(=O)[O-])[NH+]=C(CCCC(N)C(=O)[O-])N2C1C(=O)[O-] (stereo partly specified),7.6
13,N[C@H]1CCc2ccccc21,9.21
14,Cc1c[nH+]c([O-])nc1N,4.69
15,CC(CC[NH+](C)C)NN (stereo unspecified),5.9
16,CCCCCCCN(CCCCCCC)c1ccccc1,3.33
17,Cc1cnc2c(cc(C)c3c(C)ccnc32)c1C,6.45
18,Nc1nc(NCCO)nc(NCCO)n1,5.18
19,C[n+]1ccc(NN)c2ccccc21,2.61
20,CSC(=N)c1ccccc1,5.84
21,CCCNc1c2ccccc2nc2cccc([N+](=O)[O-])c12,7.2
22,Cc1ccc(N)cc1[N+](=O)[O-],3
23,NCCSCCN,9.64

row,SMILES,pKa
1,NNCCc1ccccc1,7.25
2,O=C1CC2OCC=C3C4CC5N(CCC56c5ccccc5N1C6C24)[C@H]3S(=O)(=O)[O-] (stereo partly specified),3.2
3,CN[C@H]1CCCC[C@@H]1O,10.2
4,C1CCN(CCCN2CCCCC2)CC1,10.1
5,NC(=S)C1(N)CCCCC1,7.23
6,Cc1ncc[nH]1,7.97
7,O=C(CN1CCOCC1)NCc1ccccc1,4.98
8,[O-]c1ccnc2ccccc12,11.2
9,CCCCNc1ncnc2c1cnn2C,4.22
10,CNCC(O)c1ccccc1 (stereo unspecified),9.31
11,CN,10.8
12,Nc1ccc2[nH]c(=O)[nH]c2c1,5
13,CCNc1ccccc1,5.29
14,c1ccc(NCCN2CCCCC2)cc1,9.2
15,COc1ccc(OC)c2c1nc(CO)n2C,5.24
16,CN(C)C[C@@H]1[C@@H](N)[C@]2(C)CC[C@@H]1C2(C)C,9.45
17,Oc1cncc2ccccc12,4.8
18,CCOCCNc1ccc(C)cc1,4.6
19,[O-]c1ncnc2ccccc12,9.81
20,[NH3+]CCCc1ccccn1,4.98
21,[NH3+][C@@H](Cc1c[nH]cn1)C(=O)N[C@@H](Cc1c[nH]c[nH+]1)C(=O)[O-],5.6
22,CC[C@]1(O)C[C@@H](C)N[C@H]2CCCC[C@@H]21,9.71
23,CC1=C(CC(C)NCC(O)c2ccc(Br)cc2)CCC1(C)C (stereo unspecified),8.57

row,SMILES,pKa
1,COC(=O)c1cc(Br)c(=O)n(N)c1,2.4
2,CCN(CCO)CC(C)O (stereo unspecified),8.9
3,CCCN(C)C,9.62
4,Cc1cn(C)nc1C,3.56
5,[S-]c1ncnc2ncncc12,6.23
6,Cc1ccc(N)cc1C,4.94
7,C=CCOc1nc(N)nc(N)n1,3.43
8,NC(=O)/C=C(\O)c1ccccn1,8.23
9,COc1ccc(N(C)C)cc1,5.86
10,c1c[nH+]c(Cc2nc(Cc3c[nH]c[nH+]3)c[nH]2)[nH]1,3.94
11,NCCCCCc1ccccn1,10.4
12,COc1ccc2c3c1O[C@H]1CCC[C@H]4[C@@H]([C@@H]2O)N(C)CC[C@]314,9.41
13,CC(C)(C)N1CC(O[Si](C)(C)C)C1,9.24
14,N[C@@H]1C[C@@H]1[NH3+],4.2
15,Cc1ccc2c(c1)cc(C)n2C,0.5
16,C=CC(=O)NC(C)(C)CCN(C)C,9.39
17,Cc1cc(=O)n(C)n1-c1ccccc1,2.4
18,Cc1cnc2ccccc2n1,0.95
19,N=C(N)Nc1nc(N)nc(NC(=N)N)n1,9.8
20,C[NH+]1CCC[C@H]1c1cccnc1,3.16
21,C=CCN(CC=C)CCOC(=O)C(=C)C,7.02
22,Nc1ccc(Cl)cn1,4.83
